Results published in patent publication US10344019B2 (priority 2010, dated 2019).
Like-named read-outs stand apart in the source and are kept apart here.

Experiments:
Assay type in all cases: cell-based
[1] = test system: HCV 2a Rluc cells (NS5A chimeric genotype 2a JFH-1 replicon with genotype 2a J6 strain NS5A gene, M31 present); test: HCV replicon reporter assay, genotype 2a J6 (M31 present); conditions: Hepatitis C virus, read-out: 2a J6
Summary of the method: (§1)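 Renilla luciferase HCV replicon cells: dicistronic 1b Con1, 1a H77 or 2a JFH-1 replicons, or a JFH-1 chimera carrying J6 NS5A (M31 present). Compound in DMSO serial dilutions, 72 h incubation, then lysis and luciferase read. EC50 by non-linear regression.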

[2] = test system: HCV 2a JFH-1 Rluc cells (dicistronic genotype 2a JFH-1 replicon, RLuc reporter); test: microbe, parasite or virus in culture; conditions: Hepatitis C virus, read-out: 2a JFH
Summary of the method: as §1

[3] = test system: HCV 1b RLuc cells (dicistronic genotype 1b Con1 replicon, RLuc reporter); test: microbe, parasite or virus in culture; conditions: Hepatitis C virus, read-out: 1b (nM)
Summary of the method: as §1

[4] = test system: HCV 2b Rluc cells (NS5A chimeric genotype 2a JFH-1 replicon with genotype 2b MD2b-1 NS5A gene, M31 present); test: microbe, parasite or virus in culture; conditions: Hepatitis C virus, read-out: 2b
Summary of the method: (§2)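 Replicon cells stably carrying the listed RLuc-encoding dicistronic replicons were seeded and treated with DMSO serial dilutions of compound (10 mM stocks) diluted into culture medium. After 72 h, cells were lysed and Renilla luciferase activity measured. EC50 was derived by non-linear regression.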

[5] = test system: HCV 1a RLuc cells (dicistronic genotype 1a H77 replicon, RLuc reporter); test: microbe, parasite or virus in culture; conditions: Hepatitis C virus, read-out: 1a
Summary of the method: as §1

[6] = test system: HCV 3a RLuc cells (NS5A chimeric genotype 1b Con1 replicon with consensus genotype 3a NS5A gene); test: microbe, parasite or virus in culture; conditions: Hepatitis C virus
Summary of the method: as §2

[7] = test system: Q30R in genotype 1a NS5A, 1a Rluc replicon transfected into Huh-7 cured-51 cells; test: HCV replicon assay, resistance mutant 1a Q30R; conditions: Hepatitis C virus, Huh-7, read-out: 1a Q30R
Protocol: Evaluation of cell-based anti-HCV activity: Antiviral potency (EC50) was determined using a Renilla luciferase (RLuc)-based HCV replicon reporter assay. To perform the assay for genotype 1 and 2a JFH-1, HCV 1b RLuc cells (harboring a dicistronic genotype 1b Con1 replicon that encodes a RLuc reporter), or HCV 1a RLuc cells (harboring a dicistronic genotype 1a H77 replicon that encodes a RLuc reporter), or HCV 2a JFH-1 Rluc cells (harboring a dicistronic genotype 2a JFH-1 replicon that encodes a RLuc reporter) were dispensed into 384-well plates. To perform the assay for genotype 2a (with M31 present) or 2b, HCV 2a Rluc or 2b Rluc cells (both with M31 present) harboring a dicistronic NS5A chimeric genotype 2a JFH-1 replicon that encodes a RLuc reporter and either genotype 2a J6 strain NS5A gene or genotype 2b MD2b-1 NS5A gene (based on Los Alamos HCV database isolates, both with M31 present) respectively, were dispensed into 384-well plates. To perform the assay for genotype 3 and 4, HCV 3a RLuc or 4a Rluc cells harboring a dicistronic NS5A chimeric genotype 1b Con1 replicon that encodes a RLuc reporter and either a consensus genotype 3a NS5A gene or genotype 4a NS5A gene (based on Los Alamos HCV database isolates) respectively, were dispensed into 384-well plates. Compounds were re-suspended in DMSO at a concentration of 10 mM and serially diluted in DMSO either manually or using an automated pipeting instrument. Serially diluted compounds were mixed with cell culture media and added to the seeded cells. […] 72 hours later, cells were lysed and Renilla luciferase activity quantified as recommended by the manufacturer (Promega-Madison, Wis.). Non-linear regression was performed to calculate EC50 values.
To determine the antiviral potency (EC50) against resistance mutants, resistance mutations, including M28T, Q30R, Q30H, L31M, and Y93C in genotype 1a NS5A and Y93H in genotype 1b NS5A, were introduced individually into either 1a Rluc or 1b Rluc replicons described above by site directed mutagenesis. Replicon RNA of each resistant mutant was transfected into Huh-7 cured-51 cells and antiviral potency was determined on these transfected cells as described above.

[8] = test system: HCV 4a Rluc cells (NS5A chimeric genotype 1b Con1 replicon with genotype 4a NS5A gene); test: microbe, parasite or virus in culture; conditions: Hepatitis C virus, read-out: 4a
Summary of the method: as §2

[9] = genotype 2a JFH-1 RLuc replicon
[10] = read-out: 3a, genotype 3a NS5A chimeric replicon

Compound	EC50 [1] [nM]	EC50 [2, 9] [nM]	EC50 [3] [nM]	EC50 [4] [nM]	EC50 ([5]; genotype 1a H77 RLuc replicon) [nM]	EC50 [6, 10] [nM]	EC50 [7] [nM]	EC50 ([2]; genotype 2a JFH-1 replicon) [nM]	EC50 [8] [nM]	EC50 ([5]; genotype 1a replicon) [nM]	EC50 ([6]; read-out: 3a, genotype 3a replicon) [nM]
COC[C@H]1C[C@@H](c2nc3ccc4cc5c(cc4c3[nH]2)OCc2cc(-c3cnc([C@@H]4CC[C@H](C)N4C(=O)[C@@H](NC(=O)OC)C(C)C)[nH]3)ccc2-5)N(C(=O)[C@@H](NC(=O)OC)[C@@H](C)OC)C1 [Example 615]	0.001 to 0.999	0.001 to 0.999	0.019	0.001 to 0.999	0.001 to 0.999	0.001 to 0.99	0.001 to 0.999	–	–	–	–
COC[C@H]1C[C@@H](c2ncc(-c3cc4c5c(c3)OCc3cc(-c6cnc([C@@H]7C[C@H](C)CN7C(=O)[C@H](NC(=O)OC)c7ccccc7)[nH]6)cc(c3-5)OC4)[nH]2)N(C(=O)[C@@H](NC(=O)OC)C(C)C)C1 [Example 611]	0.001 to 0.999	0.001 to 0.999	0.013	0.001 to 0.999	0.001 to 0.999	0.001 to 0.99	0.001 to 0.999	–	–	–	–
COC(=O)N[C@H](C(=O)N1[C@@H](C)CC[C@H]1c1ncc(-c2ccc3c(c2)COc2cc4c(ccc5nc([C@@H]6CCCN6C(=O)[C@H](NC(=O)OC)c6ccccc6)[nH]c54)cc2-3)[nH]1)C(C)C [Example 605]	0.001 to 0.999	0.001 to 0.999	0.015	0.001 to 0.999	0.001 to 0.999	0.001 to 0.99	0.001 to 0.999	–	–	–	–
COC(=O)N[C@H](C(=O)N1CCC[C@H]1c1nc2c([nH]1)-c1cc3c(cc1CC2)-c1ccc(-c2cnc([C@@H]4CCCN4C(=O)[C@H](NC(=O)OC)c4ccccc4)[nH]2)cc1CO3)C(C)C [Example 435]	0.001 to 0.999	–	–	0.001 to 0.999	–	–	0.001 to 0.999	0.001 to 0.999	0.001 to 0.99	0.001 to 0.999	0.001 to 0.99
COC[C@H]1C[C@@H](c2ncc(-c3ccc4c(c3)COc3cc5c(ccc6nc([C@@H]7CCCN7C(=O)[C@H](NC(=O)OC)c7ccccc7)[nH]c65)cc3-4)[nH]2)N(C(=O)[C@@H](NC(=O)OC)[C@@H](C)OC)C1 [Example 626]	0.001 to 0.999	0.001 to 0.999	0.03	0.001 to 0.999	0.001 to 0.999	0.001 to 0.99	0.001 to 0.999	–	–	–	–
COC(=O)N[C@H](C(=O)N1CCC[C@H]1c1ncc(-c2ccc3c(c2)COc2cc4c(ccc5nc([C@@H]6C[C@H](C)CN6C(=O)[C@H](NC(=O)OC)c6ccccc6)[nH]c54)cc2-3)[nH]1)C(C)C [Example 543]	0.001 to 0.999	0.001 to 0.999	–	0.001 to 0.999	0.001 to 0.999	0.001 to 0.99	0.001 to 0.999	–	0.001 to 0.99	–	–
COC[C@H]1C[C@@H](c2ncc(-c3ccc4c(c3)COc3cc5c(ccc6nc([C@@H]7CCCN7C(=O)[C@H](NC(=O)OC)c7ccccc7)[nH]c65)cc3-4)[nH]2)N(C(=O)[C@@H](NC(=O)OC)C(C)C)C1 [Example 625]	0.001 to 0.999	0.001 to 0.999	0.031	0.001 to 0.999	0.001 to 0.999	0.001 to 0.99	0.001 to 0.999	–	–	–	–
CC[C@H](C)[C@H](NC(=O)OC)C(=O)N1C[C@@H](COC)C[C@H]1c1nc2ccc3cc4c(cc3c2[nH]1)OCc1cc(-c2cnc([C@@H]3CC[C@H](C)N3C(=O)[C@@H](NC(=O)OC)[C@@H](C)CC)[nH]2)ccc1-4 [Example 597]	0.001 to 0.999	0.001 to 0.999	0.005	0.001 to 0.999	0.001 to 0.999	0.001 to 0.99	0.001 to 0.999	–	–	–	–
COC(=O)N[C@H](C(=O)N1C[C@@H](COC(F)F)C[C@H]1c1nc2ccc3cc4c(cc3c2[nH]1)OCc1cc(-c2cnc([C@@H]3CCCN3C(=O)[C@H](NC(=O)OC)c3ccccc3)[nH]2)ccc1-4)C(C)C [Example 558]	0.001 to 0.999	0.001 to 0.999	0.014	0.001 to 0.999	0.001 to 0.999	–	0.001 to 0.999	–	0.001 to 0.99	–	–
